# pIC50: −log10 of the molar value. Read-outs that look alike come from different tables or passages of the source.
# Tests used:
# [1] = tested on: HEM-DP cells; assay: Melanin content quantification in human epidermal melanocytes; assay type: cell-based; settings: 48 hours
# Experimental: Primary cultures of human epidermal melanocytes from a darkly pigmented donor were seeded at 2.2×10^5 cells/well in 1.5 ml media in 12-well plates and incubated for 48 hours. The test compounds were added to cultures and controls were treated with 0.16% DMSO, and further incubated for another 48 hours. For evaluation of melanin content, cells in the wells were trypsinized and cell pellets were washed in PBS. After aspiration, 250 μL of 1N NaOH was added and heated to 70° C. to solubilize melanin. The aliquots were then transferred to a 96-well plate and absorbance was read at 475 nm using microplate reader. A portion of the lysate was used to evaluate total protein content using […] bincinchonic acid (BCA) assay (Pierce BCA kit, Thermo Scientific). The absorbance of melanin was normalized to the total protein content for each lysate and reported as % of control.
# [2] = tested on: αMSH-stimulated B16F10 cells; assay: Melanin content in αMSH-stimulated B16F10 cells; assay type: cell-based, mouse; set-up: dose or concentration left out as unconfirmed; settings: αMSH-stimulated B16F10, 48 hours
# Experimental: B16F10 cells were seeded at 1×10^5 cells/well in 12-well plates and incubated for 24 hours. The test compounds were then added in presence or absence of αMSH (100 nM), and further incubated for another 48 hours. For evaluation of melanin content, cells were trypsinized, washed in PBS and then 250 μL of 1N NaOH was added and heated to 70° C. to solubilize melanin. The aliquots were then transferred to a 96-well plate and absorbance was read at 475 nm using microplate reader. The absorbance of melanin was normalized by total protein contents and reported as % of control.
# [3] = tested on: B16F10 mouse melanoma cells; assay type: cell-based; settings: for cell viability: mouse, 48 h
# Experimental: In order to test the four CMCs (CMC2.14, CMC2.24, CMC2.5 and CMC2.23) alongside PC and THC, for their effects on melanin content, we first screened their nontoxic concentrations using MTS cytotoxicity (Promega CellTiter Aqueous One) assay. MTS is a tetrazolium salt which is reduced to purple colored formazan upon reaction with mitochondrial dehydrogenases. Briefly, B16F10 cells were seeded at 4×10^3 cells/well in 96-well plates for 24 hrs. […] Controls were treated with 0.16% DMSO. At the end of 48 hours, medium was aspirated and replaced by 100 μl of fresh media. MTS (20 μl) was added and incubated for 40 minutes and absorbance read at 490 nm using a Versamax® microplate reader. Cell viability was calculated from the absorbance values relative to control groups and expressed in %.
# [4] = tested on: B16F10 cells; assay: Melanin content quantification in B16F10 cells; assay type: cell-based, mouse; settings: Mus musculus, B16-F10
# Experimental: B16F10 cells were seeded at 1×10^5 cells/well in 1.5 ml media in 12-well plates and incubated for 24 hours. […] For quantification of melanin content, cells were trypsinized and cell pellets were washed in PBS. Cell pellets were also visually observed for lightening of the intracellular pigment. After aspiration, 250 μL of 1N NaOH was added and heated to 70° C. to solubilize melanin. The aliquots were then transferred to a 96-well plate and absorbance was read at 475 nm using a microplate reader. A portion of the lysate was used to evaluate total protein content using BCA assay. The melanin absorbance was normalized by total protein content and expressed as % of control.
# [5] = Copper chelating activity assay (pyrocatechol violet); assay type: physicochemical; settings: PV dye method
# Experimental: Metal ion chelation activity can be detected by pyrocatechol violet indicator assay which is similar to that reported in other studies with some modifications [Baek, S-H. et al. 2015]. Briefly, 100 μl of sample containing different concentrations of solutes were mixed with 50 mM sodium acetate buffer (pH 6.0) in a 96 well plate. Control group consisted of buffer only; KA at 500 μM was used as a positive control. Copper sulfate (2 mM; 10 μl) was added to the samples and incubated for 10 minutes. 10 μl of 2 mM pyrocatechol violet was then added and the plate was further incubated for 20 minutes. The absorbance was read at 632 nm using a microplate reader (Versamax). Lower absorbance compared to control was indicative of copper chelation.
# [6] = tested on: intracellular ROS in B16F10 cells; assay: Intracellular ROS assay (H2DCFDA) in B16F10 cells; assay type: cell-based, mouse; settings: 48 hours
# Experimental: Intracellular ROS generation was quantified using 2′,7′-dichlorodihydrofluorescein diacetate (H2DCFDA), a non-fluorescent dye which is trapped intracellularly by cleavage by intracellular esterases after reaction with reactive oxygen species (ROS); only the product, DCF, is fluorescent. For measuring intracellular ROS, B16F10 cells were seeded in 24 well plates at 4×10^4 cells/well. After 24 hours, media was aspirated and PC, THC and CMCs were added to the wells at different concentrations and further incubated for 48 hours. At the end of the incubations, the media was aspirated and cells were washed with PBS. DCFDA (Molecular Probes) was dissolved in DMSO to make 10 mM stock. DCFDA dye working stock (50 μM) was prepared by diluting the stock in DMEM (serum-free, phenol-red free and sodium pyruvate free) media and added to cells and further incubated for 45 minutes at 37° C. The cells were then washed with DPBS and fluorescence was read in bottom read mode, using a fluorescence microplate reader (Gemini EM Spectramax, Molecular Devices) set to excitation and emission wavelengths of 485 nm and 535 nm, respectively. Data was expressed as relative fluorescence % of treated vs. control.
# [7] = tested on: MITF; assay: MITF protein levels by cell-based ELISA in B16F10 cells; set-up: species or system mouse; settings: B16F10, 10 μM, 48 hours
# Experimental: MITF is the master regulator of melanogenesis and a known transcription factor for tyrosinase gene. The effects of PC and CMCs on micropthalmia transcription factor (MITF) proteins levels were assayed using a cell-based ELISA (LifeSpan Biosciences, Seattle). Briefly, B16F10 cells were cultured in a 96-well plate at 1×10^4 cells/well for 24 hours and then media was replaced with fresh media containing compounds in 0.1% DMSO for further 48 hours. The cells were then fixed and subsequent steps were conducted based on manufacturer instructions. The absorbance of MITF expression levels were normalized by absorbance of crystal violet stain (0.05%) and data was reported as % of control.
# [8] = target: T1, cellular tyrosinase in HEM-DP cells (Homo sapiens, UniProt P14679); assay: Intracellular tyrosinase activity in human melanocytes; assay type: cell-based; settings: 48 hours
# T1 construct: endogenous in cells; host or cells: HEM-DP (primary human epidermal melanocytes, darkly pigmented donor)
# T1 sequence (P14679 19-529): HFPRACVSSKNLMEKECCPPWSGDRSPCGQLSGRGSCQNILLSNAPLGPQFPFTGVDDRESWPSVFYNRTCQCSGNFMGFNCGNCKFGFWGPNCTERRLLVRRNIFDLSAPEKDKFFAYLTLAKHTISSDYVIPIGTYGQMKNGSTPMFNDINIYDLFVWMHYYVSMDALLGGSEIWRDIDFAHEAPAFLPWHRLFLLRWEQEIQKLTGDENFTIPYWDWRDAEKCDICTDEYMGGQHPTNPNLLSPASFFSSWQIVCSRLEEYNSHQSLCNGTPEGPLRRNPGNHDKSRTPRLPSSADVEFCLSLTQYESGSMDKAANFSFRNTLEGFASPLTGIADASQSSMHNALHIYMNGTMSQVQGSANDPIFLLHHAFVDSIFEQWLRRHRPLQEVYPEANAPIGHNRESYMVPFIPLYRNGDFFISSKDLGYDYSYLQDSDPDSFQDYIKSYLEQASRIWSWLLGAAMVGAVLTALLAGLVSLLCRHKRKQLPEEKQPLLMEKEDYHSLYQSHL
# Experimental: We quantitated the cellular tyrosinase activity of human melanocytes based on established methods. Briefly, human epidermal melanocytes from a darkly pigmented donor (HEM-DP) were cultured in 12-well tissue culture plates at density of 1.5×10^5 cells/well. After 48 hrs. media was changed and test compounds were added, and further incubated for 48 hrs. At the end of treatments, cells were trypsinized and cell pellets were washed in PBS and lysed with lysis buffer under ice for 30 minutes and then centrifuged to remove cellular debris. 50 μl of lysates were then aliquoted in 96-well microplate and 150 μl of freshly prepared 3 mM L-DOPA was added. The absorbance was then measured kinetically at 475 nm every 30 seconds for 30 minutes at 30° C. using microplate reader (Versamax®). The % inhibition of tyrosinase activity was calculated by determining melanin formation rates from the linear range of the slopes of melanin formation over time for the different samples and calculating % inhibition from the measured velocities of melanin formation.
# [9] = tested on: HaCaT cells; settings: human, 48 h, 10 μM
# Experimental: Briefly, 2×10^4 cells/well were seeded in 96-well plates and after 24 hours, the compounds at concentrations of 5-25 μM were added to the wells and incubated for 48 hours. Absorbance was read after 1 hour of incubation of plates and results were expressed as % of control.
# [10] = tested on: normal human dermal fibroblasts (NHDF); assay: MTS cytotoxicity test with human dermal fibroblasts; settings: 48 hours
# Experimental: Briefly 5×10^3 cells/well were plated in 96 wells and compounds added for 48 hours. MTS assay was then conducted and plate incubated for 1 hour and then 100 μl of supernatants were aliquoted into 96 well plates and absorbance read at 490 nm using Versamax microplate reader.
# [11] = tested on: HEM-DP cells; assay: MTS cytotoxicity test with human epidermal melanocytes; assay type: cell-based; settings: 5-25 μM, 48 hours
# Experimental: For screening cytotoxicity of PC, THC and CMCs during 48 hours incubation on HEM-DP cells, we conducted MTS cytotoxicity assay. […] MTS reagent was added and incubated for 90 minutes and absorbance was read at 490 nm. The results are expressed as % relative to control.
smiles,measurement,setting,value
"O=c1cc(CO)occ1O [KA, kojic acid, reference compound]",reduction in melanin content,[1]; 1 mM,10%
same,reduction of melanin,[2],20%
"COc1cc(/C=C/C(=O)CC(=O)/C=C/c2ccc(O)c(OC)c2)ccc1O [PC, Curcumin]","cytotoxicity, overall ranking",[3],most cytotoxic
same,increase of cell proliferation,"[3]; B16F10, 5 μM, 48 hours, MTS",13%
same,cell viability,[3]; 20 μM,24.44%
same,cell viability,[3]; 25 μM,16.55%
same,inhibition at 10 µM,"[4]; B16F10, 10 μM, 48 hours",32.1%
same,pIC50,"[4]; B16F10 cells exposed for 48 hours, non-linear curve fitting, read-out: IC50-Melanin Inhibition",4.68
same,copper chelating activity,[5],did not show any effect
same,reduction of intracellular ROS,"[6]; B16F10, 10 μM",24%
same,inhibition of MITF protein levels,[7],≤ 30%
same,effect on melanin content (words),[1]; nontoxic concentrations tested (PC 5 and 10 μM),did not show any significant difference
same,inhibition of cellular tyrosinase activity,[8]; 5 μM,significantly (p<0.01) inhibited
same,inhibition of cellular tyrosinase activity,[8]; 10 μM,significantly (p<0.01) inhibited
same,cell viability,[9],90.12%
same,cell viability,"[10]; 10 μM, MTS",71.9%
same,toxicity,[10]; range tested 5-25 μM,significantly toxic
"COc1cc(CCC(=O)CC(=O)CCc2ccc(O)c(OC)c2)ccc1O [THC, Tetrahydrocurcumin]",reduction of intracellular ROS,"[6]; B16F10, 5 μM",24%
same,cytotoxicity,[11],nontoxic
same,inhibition at 25 µM,[8]; 25 μM,24%

# Source: patent US10300000B2, “Inhibition of melanogenesis by chemically modified curcumins” (The Research Foundation for The State University of New York, priority 2016, dated 2019)
